Data taken from patent publication US7034005B2, “Use of agent for suppressing infection and proliferation of human immunodeficiency syndrome virus” (The Kitasato Institute, priority 2002, dated 2006).
“Also recorded” adds a separate entry of the source.

System: HIV-1BAL strain in M type macrophage (M-MΦ) derived from human monocytes
Test: Proliferation of HIV-1 in M-MΦ: p24 protein in culture supernatant by sandwich ELISA
Format: cell-based
Conditions: HIV-1BAL; for viral production in M-MΦ at 30 μM: incubated for 10 days (FIGS. 21-25); for production of p24 protein in M-MΦ at various concentrations: incubated for 10 days, compared with DMSO (FIGS. 21-25); for p24 protein / viral proliferation in M-MΦ with kinase inhibitor: 10 μM, up to day 14, compared with control group (FIG. 20)
Procedure: Macrophages derived from monocytes were prepared by culturing the recovered monocytes in the presence of M-CSF (macrophage colony-stimulating factor) (10^4 U/ml, provided by Morinaga Milk Co.), granulocytes and granulocyte-macrophage colony-stimulating factor, GM-CSF) (500 U/ml, provided by Japan Scheling Plough Co., Osaka, or purchased from R & S Genzyme-TECHNE Inc.) with RPMI1640 medium added with FCS10% (Nissui Seiyaku Co., Tokyo) for 7–8 days.
The macrophage prepared by differential induction of M-CSF from human monocytes is designated as M type macrophage (M type MΦ or M-MΦ) and the macrophage prepared by differential induction of GM-CSF from human monocytes is designated as GM type macrophage (GM type MΦ or GM-MΦ) Further, alveolar macrophage (alveolar MΦ or A-MΦ) was prepared as follows. Cells in the alveolar lavage liquid obtained from the alveolar lavage of healthy volunteers were recovered, suspended and adhered to plastics, then the non-adhered cells were washed out and the remained adhered cells were designated as the alveolar MΦ.
Infection of HIV-1 to macrophage was performed as follows. Macrophage directed viral strains, HIV-1JR-FL and HIV-1BAL, were infected for 2 hours in contact with M-MΦ, GM-MΦ and A-MΦ (adjusted to 2.5×10^5/well, Flacon No3043: Becton Dickinson Labware, Inc. U.S.)at low concentration (p24 antigen titer 50 ng/ml, TCID50=3000/ml virus to final concentration at 100 pg/ml), and non-adsorbed virus to the macrophage was washed out, and cultured with adding fresh medium. In case of the medium with M-MΦ, M-CSF was added (10^4 U/ml), and that of the medium with GM-MΦ, GM-CSF was added (500 U/ml).
Proliferation of virus was examined with the released viral particles in the culture supernatant after the infection by the sandwich ELISA using two types of anti-p24 antibody (Nu24 and 10B5^13). The following JAM62 and JAM65 were used as LTR (HIV long terminal repeat)-gap gene primer. The following JAM63 and JAM 64 were used as the internal primer for the nested PCR. • JAM62: • 5′-[…]-3′ (SEQ ID NO: 1) • JAM65: • 5′-[…]-3′ (SEQ ID NO: 2) • JAM63: • 5′-GTGTOACTCTGGTAACTAGAGATCC-3′ (SEQ ID NO: 3) • JAM64: • 5′-[…]-3′ (SEQ ID NO: 4) (1-4) Assay of Expression of Tyrosine Kinase Hck Protein and Transcription Factor C/EBPβ Protein
In order to show growth suppression effect of the present invention, among macrolide derivatives, EM, EM201, EM202, EM703, CAM, EM722, EM730, EM732, EM736, EM734, EM735, EM747, EM748, EM743, EM746, EM750 or EM751 was dissolved in DMSO with each 100 mM concentration, and used in dilution with the medium thereafter. A control group was M-MΦ treated only with DMSO used for dissolving macrolide derivatives.
M-MΦ and GM-M Φ were subjected to contact infection with HIV-1BAL strain for 2 hours, added 30 μM of EM, EM201, EM202, EM703, CAM,EM722, EM730, EM732, EM736, EM734, EM735, EM747, EM748, EM743, EM746, EM750 or EM751, incubated for 14 days and amount of p24 protein in the cultured supernatant was assayed in the time-dependent manner.

Compound | viral production in M-MΦ at 30 μM | production of p24 protein in M-MΦ at various concentrations | p24 protein / viral proliferation in M-MΦ with kinase inhibitor
CCCNC1CC(C)OC(OC2C(C)C(OC3CC(C)(OC)C(O)C(C)O3)C(C)C(=O)OC(C(C)(O)C(O)CC)C(C)C3=C(C)CC2(C)O3)C1O (stereo not shown) [EM730, bis-de(3′-N-methyl)-3′-N-propyl-8,9-anhydro-pseudo-erythromycin A 6,9-hemiketal] | inhibit almost completely viral production; also recorded: almost complete inhibition | suppressed depending on the concentration of agent | –
CC[C@@H](O)[C@@](C)(O)[C@@H]1OC(=O)[C@H](C)[C@@H](O[C@H]2C[C@@](C)(OC)[C@@H](O)[C@H](C)O2)[C@H](C)[C@@H](O[C@@H]2O[C@H](C)C[C@H](N3CCCCC3)[C@H]2O)[C@@]2(C)CC(C)=C(O2)[C@@H]1C [EM734, de(3′-dimethylamino)-3′-piperidino-8,9-anhydro-pseudoerythromycin A 6,9-hemiketal] | inhibit almost completely viral production; also recorded: almost complete inhibition | suppressed depending on the concentration of agent | –
CC[C@@H](O)[C@@](C)(O)[C@@H]1OC(=O)[C@H](C)[C@@H](O[C@H]2C[C@@](C)(OC)[C@@H](O)[C@H](C)O2)[C@H](C)[C@@H](O[C@@H]2O[C@H](C)C[C@H](N3CCCC3)[C@H]2O)[C@@]2(C)CC(C)=C(O2)[C@@H]1C [EM735, de(3′-dimethylamino)-3′-pyrrolidino-8,9-anhydro-pseudoerythromycin A 6,9-hemiketal] | inhibit almost completely viral production; also recorded: almost complete inhibition | suppressed depending on the concentration of agent | –
CC[C@@H](O)[C@@](C)(O)[C@@H]1OC(=O)[C@H](C)[C@@H](O[C@H]2C[C@@](C)(OC)[C@@H](O)[C@H](C)O2)[C@H](C)[C@@H](O[C@@H]2O[C@H](C)C[C@H](NC(C)C)[C@H]2O)[C@@]2(C)CC(C)=C(O2)[C@@H]1C [EM736, bis-de(3′-N-methyl)-3′-N-(2-propyl)-8,9-anhydro-pseudoerythromycin A 6,9-hemiketal] | inhibit almost completely viral production; also recorded: almost complete inhibition | suppressed depending on the concentration of agent | –
COC1(C)CC(OC2C(C)C(=O)OC(C(C)=NO)C(C)C3=C(C)CC(C)(O3)C(OC3OC(C)CC(N(C)C)C3O)C2C)OC(C)C1O (stereo not shown) [EM743, de(12-hydroxy)-de[12-(1-hydroxypropyl)]-12-hydroxy-oxime-8,9-anhydro-pseudoerythromycin A 6,9-hemiketal] | inhibit almost completely viral production; also recorded: almost complete inhibition | suppressed depending on the concentration of agent | –
CC[C@@H](O)[C@@](C)(O)[C@@H]1OC(=O)[C@H](C)[C@@H](O[C@H]2C[C@@](C)(OC)[C@@H](O)[C@H](C)O2)[C@H](C)[C@@H](O[C@@H]2O[C@H](C)C[C@H](N3CCOCC3)[C@H]2O)[C@@]2(C)CC(C)=C(O2)[C@@H]1C [EM747, de(3′-dimethylamino)-3′-morpholino-8,9-anhydro-pseudoerythromycin A 6,9-hemiketal] | inhibit almost completely viral production; also recorded: almost complete inhibition | suppressed depending on the concentration of agent | –
COC1(C)CC(OC2C(C)C(=O)OC(C(C)N)C(C)C3=C(C)CC(C)(O3)C(OC3OC(C)CC(N(C)C)C3O)C2C)OC(C)C1O (stereo not shown) [EM750, de(12-hydroxy)-de[12-(1-hydroxypropyl)]-12-amino-8,9-anhydro-pseudoerythromycin A 6,9-hemiketal] | inhibit almost completely viral production; also recorded: almost complete inhibition | suppressed depending on the concentration of agent | –
CN[C@H]1C[C@@H](C)O[C@@H](O[C@@H]2[C@@H](C)[C@H](O[C@H]3C[C@@](C)(OC)[C@@H](O)[C@H](C)O3)[C@@H](C)C(=O)O[C@@H](C(C)O)[C@@H](C)C3=C(C)C[C@@]2(C)O3)[C@@H]1O (stereo partly shown) [EM751, de(3′-N-methyl)-de[12-(1-hydroxypropyl)]-8,9-anhydro-pseudoerythromycin A 6,9-hemiketal] | inhibit almost completely viral production; also recorded: almost complete inhibition | suppressed depending on the concentration of agent | –
CCC(O)C(C)(O)C1OC(=O)C(C)C(O)C(C)C(OC2OC(C)CC(NC)C2O)C2(C)CC(C)=C(O2)C1C (stereo not shown) [EM754, de(3-O-cladinosyl)-de(3′-N-methyl)-8,9-anhydro-pseudoerythromycin A 6,9-hemiketal] | inhibit almost completely viral production; also recorded: almost complete inhibition | suppressed depending on the concentration of agent | –
COc1cccc(-c2cc(=O)c3ccccc3o2)c1N [PD98059, 2-[2-amino-3-methoxyphenyl]-4H-1-benzopyran-4-one, reference compound] | – | – | amount of p24 protein was not different in the control group
C[S+]([O-])c1ccc(-c2nc(-c3ccc(F)cc3)c(-c3ccncc3)[nH]2)cc1 (stereo not shown) [SB203580, 4-[4-fluoro-phenyl]-2-[4-methylsulfinylphenyl]-5-[4-pyridyl]-1H-imidazole, reference compound] | – | – | no p24 protein was almost detected even on day 14
bis-de(3′-N-methyl)-3′-N-benzyl-8,9-anhydro-pseudo-erythromycin A 6,9-hemiketal [EM732] | inhibit almost completely viral production; also recorded: almost complete inhibition | suppressed depending on the concentration of agent | –
bis-de(3′-N-methyl)-3′-N-ethyl-8,9-anhydro-pseudo-erythromycin A 6,9-hemiketal [EM722] | inhibit almost completely viral production; also recorded: almost complete inhibition | suppressed depending on the concentration of agent | –
de(3′-dimethylamino)-3′-[hexahydro-1(1H)-azepinyl]-8,9-anhydro-pseudoerythromycin A 6,9-hemiketal [EM748] | inhibit almost completely viral production; also recorded: almost complete inhibition | suppressed depending on the concentration of agent | –
de[12-(1-hydroxypropyl)]-8,9-anhydro-pseudo-erythromycin A 6,9-hemiketal [EM746] | inhibit almost completely viral production; also recorded: almost complete inhibition | suppressed depending on the concentration of agent | –
